# In patent US9018214B2, “Bicyclic heterocycle compounds and their uses in therapy” (Astex Therapeutics Limited, priority 2011, dated 2015):
# Where a name gives a salt, the structure may show the parent alone. Read-outs that look alike come from different tables or passages of the source.
# Experiments:
# [1] = system: MDA-MB-231 (human breast carcinoma); experiment: Anti-proliferative activity, Alamar Blue assay, MDA-MB-231; type: cell-based; conditions: read-out: EC50, inhibition of cell growth
# [2] = biological target: BIR3 domain of human cIAP-1 (residues 267-363) (Homo sapiens (Human), UniProt Q13490); experiment: cIAP-1 in vitro competitive displacement binding assay (fluorescence polarization; Probe A AVPIK(5&6FAM)-amide or Probe B AbuRPFK(5&6FAM)-amide); conditions: for IC50: read-out: IC50 or PI cIAP1: IC50
# [3] = system: EVSA-T (human breast carcinoma); experiment: Anti-proliferative activity, Alamar Blue assay, EVSA-T; type: cell-based; conditions: Homo sapiens
# [4] = biological target: BIR3 domain of human XIAP (residues 252-350) (Homo sapiens (Human), UniProt P98170); experiment: XIAP in vitro competitive displacement binding assay (fluorescence polarization); conditions: for IC50: read-out: IC50 or PI Xiap: IC50; for inhibition at 0.04 µM: 1 h, read-out: IC50 or PI Xiap: PI
# [5] = MDA-MB-231 cell line, 72 hours, Alamar Blue
# [6] = EVSA-T, 72 hours, Alamar Blue, read-out: EVSA-T prolif (EC50)
# [7] = EVSA-T cell line, 72 hours, Alamar Blue, read-out: EC50, inhibition of cell growth
# [8] = EVSA-T, 72 h, read-out: EVSA-T prolif (EC50)
SMILES,"EC50 [1, 5] [µM]",IC50 ([2]; Probe B AbuRPFK(5&6FAM)-amide) [µM],"EC50 [3, 6] [µM]",IC50 [4] [µM],"EC50 [3, 7] [µM]","EC50 ([1]; MDA-MB-231, 72 h) [µM]",IC50 [2] [µM],"EC50 [3, 8] [µM]",inhibition at 0.04 µM [4] [%],"inhibition at […] ([2]; 3 h, Probe B, @ 0.012 μM, read-out: IC50 or PI cIAP1: PI) [%]",inhibition at 0.04 µM ([4]; @ 0.04 μM) [%]
"C[C@@H]1CN(CC(=O)N2CC(C)(C)c3cnc(Cc4ccccc4)cc32)[C@@H](C(F)F)CN1 [Example 122, 1-{6-Benzyl-3,3-dimethyl-1H,2H,3H-pyrrolo[3,2-c]pyridin-1-yl}-2-[(2R,5R)-2-(difluoromethyl)-5-methylpiperazin-1-yl]ethan-1-one hydrochloride]",< 10,0.029,0.29,0.22,,,,,,,
"COC[C@H]1CN[C@H](C)CN1CC(=O)N1CC(C)(C)c2cnc(Oc3c(F)cccc3F)cc21 [Example 128, 1-[6-(2,6-Difluorophenoxy)-3,3-dimethyl-1H,2H,3H-pyrrolo[3,2-c]pyridin-1-yl]-2-[(2R,5R)-2-(methoxymethyl)-5-methylpiperazin-1-yl]ethan-1-one hydrochloride]",< 10,0.12,1.1,0.38,< 10,,,,,,
"COC[C@H]1CN[C@H](C)CN1CC(=O)N1CC(C)(C)c2cnc(Oc3c(C)cccc3Cl)cc21 [Example 130, 1-[6-(2-Chloro-6-methylphenoxy)-3,3-dimethyl-1H,2H,3H-pyrrolo[3,2-c]pyridin-1-yl]-2-[(2R,5R)-2-(methoxymethyl)-5-methylpiperazin-1-yl]ethan-1-one hydrochloride]",< 10,0.044,0.23,0.2,< 10,,,,,,
"COC[C@H]1CN[C@H](C)CN1CC(=O)N1CC(C)(c2ccccn2)c2ccc(Cc3ccccc3)cc21 (stereo partly drawn) [Example 144, 1-[6-Benzyl-3-methyl-3-(pyridin-2-yl)-2,3-dihydro-1H-indol-1-yl]-2-[(2R,5R)-2-(methoxymethyl)-5-methylpiperazin-1-yl]ethan-1-one hydrochloride]",< 10,0.012,0.73,0.24,,,,,,,
"COC[C@H]1CN[C@H](C)CN1CC(=O)N1CC(C)(C)c2cnc(-c3cc4ccccc4o3)cc21 [Example 150, 1-[6-(1-Benzofuran-2-yl)-3,3-dimethyl-1H,2H,3H-pyrrolo[3,2-c]pyridin-1-yl]-2-[(2R,5R)-2-(methoxymethyl)-5-methylpiperazin-1-yl]ethan-1-one dihydrochloride]",,,,0.27,,< 10,0.014,0.73,,,
"C[C@@H]1CN(CC(=O)N2CC(C)(C)c3cnc(Oc4ccccc4Cl)cc32)[C@@H](C(=O)N(C)C)CN1 [Example 151, (2R,5R)-1-{2-[6-(2-Chlorophenoxy)-3,3-dimethyl-1H,2H,3H-pyrrolo[3,2-c]pyridin-1-yl]-2-oxoethyl}-N,N,5-trimethylpiperazine-2-carboxamide dihydrochloride]",,,,,,< 10,0.019,0.59,48,,
"C[C@@H]1CN(CC(=O)N2CC(C)(C)c3cnc(Oc4ccccc4Cl)cc32)[C@@H](CN2CCCC2=O)CN1 [Example 182, 1-{[(2R,5R)-1-{2-[6-(2-Chlorophenoxy)-3,3-dimethyl-1H,2H,3H-pyrrolo[3,2-c]pyridin-1-yl]-2-oxoethyl}-5-methylpiperazin-2-yl]methyl}pyrrolidin-2-one hydrochloride]",< 10,,0.067,,< 10,,,,,62,73
